Converted amounts (≈) assume the structure as drawn. “And” between values parts separate entries of the source, which are not always exact repeats. Equal values may be shown once.
Key:
[1] = tested on: VEGFR-2; assay: VEGFR-2 expression level in MCF-7 cells (ELISA); type: cell-based, human; conditions: untreated control 1573.00 ± 36.9
Experimental: (§1) In this study, we further explored the impact of cyanopyridones 5a and 5e on VEGFR-2 and HER-2 expression levels in MCF-7 cells (Figure 5). The results disclosed that both 5a and 5e had interesting profiles for reduction of VEGFR-2/HER-2 expression levels compared to the control cells and the reference drug taxol.
(§2) Assessment was performed using a VEGFR-2 (human) SimpleStep ELISA kit (ab213476) and HER-2 (human) SimpleStep ELISA kit (ab100510) (abcam® Cambridge, CB2 0AX, Cambridge, UK) according to manufacturer instructions. In brief, tissue culture supernatant was added to the anti-tag antibody-coated wells, followed by the secondary antibody mix. To remove unbound material, the wells were washed after incubation. […] The final step in the transformation from blue to yellow was the addition of a stop solution, which halted the reaction. The intensity of the signal generated at 450 nm was proportional to the amount of bound analyte.

[2] = tested on: HER-2; assay: HER-2 expression level in MCF-7 cells (ELISA); type: cell-based, human; conditions: untreated control 559.00 ± 33.9
Experimental: as §1, §2

[3] = tested on: MCF-7 cell line; assay: MTT cytotoxicity assay, MCF-7; type: cell-based; conditions: Homo sapiens, MCF7, 48 h, mean ± S.D. of three experiments, 50% growth inhibition
Experimental: (§3) The MTT colorimetric assay is a very sensitive method used to measure the potential cytotoxicity (loss of viable cells) of targeted compounds. […] The drug taxol was used as the reference standard. Cell morphological changes were recorded to determine the cytotoxic effect, and the results are found in Table 1, Figure 3.
(§4) In vitro testing was performed on HepG2 and MCF-7 cell lines to determine the antitumor activity of the newly synthesized chemical compounds. Both cell lines originally came from Egypt’s National Cancer Institute (NCI), housed at Cairo University. At 37 °C with 5% […], the cells were grown in RPMI 1640 containing 10% fetal bovine serum, 50 micrograms per milliliter of streptomycin, and 100 international units per milliliter of penicillin. After trypsinization with 0.05% trypsin-EDTA, cell growth and morphology were evaluated, and passages were made when cells reached 80–90% confluence.
(§5) The MTT assay protocol is described in the Supplementary Materials.
(§6) The MTT assay was used to determine the effects of the newly synthesized compounds on cell viability. In a nutshell, 1 × 10^4 cells/well were seeded in a 96-well plate and allowed to grow for 24 hours. After 24 hours, the original medium was discarded, and a new compounds-containing medium was added. After 48 hours, the media was changed out and 100 μL of MTT (10 μL from (MTT) stock solution (5 mg/ml in PBS) in 100 μL media) was added to each well, and the plates were incubated at 37° C for 4 hours. After adding 100 μL of acidified isopropanol to each well, the formed formazan crystals were dissolved, and the absorbance was read at 570 nm using an ELISA microplate reader (Epoc-2C micro-plate reader, Bio Tek, VT, USA). There were three separate runs of every experiment. Half-maximal inhibitory concentrations (IC50) were determined by fitting sigmoidal dose-response curves.
(§7) GraphPad Prism 8.0 (San Diego, CA, USA) analyzed all results. All results (three independent experiments) were shown as means ± standard deviation. The significance of the differences in the outcomes of all groups was examined using ANOVA and Tukey’s

[4] = target: T1, VEGFR-2 (Homo sapiens, UniProt P35968); assay: In vitro VEGFR-2 inhibition assay; type: biochemical; conditions: mean of three replicates ± S.D.
T1 construct: Effects of compounds 5e and 5a on VEGFR-2 and HER2 (µM) in MCF-7 cells compared to control; endogenous in cells; host or cells: MCF-7
Experimental: as §2

[5] = target: T2, HER-2 (Homo sapiens, UniProt P04626); assay: In vitro HER-2 inhibition assay; type: biochemical; conditions: mean of three replicates ± S.D.
T2 construct: Effects of compounds 5e and 5a on VEGFR-2 and HER2 (µM) in MCF-7 cells compared to control; endogenous in cells; host or cells: MCF-7
Experimental: as §2

[6] = tested on: HepG2 cell line; assay: MTT cytotoxicity assay, HepG2; type: cell-based; conditions: Homo sapiens, 48 h, mean ± S.D. of three experiments, 50% growth inhibition
Experimental: as §3, §4, §5, §6, §7

[7] = tested on: SF-268 CNS cancer; set-up: method as in PMID 26729087; conditions: cited from earlier work
[8] = tested on: NCI-H460 non-small cell lung cancer; set-up: method as in PMID 26729087; conditions: cited from earlier work
[9] = tested on: MCF-7 breast cancer; set-up: method as in PMID 26729087; conditions: cited from earlier work
[10] = tested on: HER-2; set-up: method as in doi:10.1039/C5MD00602C; conditions: reported by Pfizer; cited from earlier work

T2 sequence (P04626 23-1255): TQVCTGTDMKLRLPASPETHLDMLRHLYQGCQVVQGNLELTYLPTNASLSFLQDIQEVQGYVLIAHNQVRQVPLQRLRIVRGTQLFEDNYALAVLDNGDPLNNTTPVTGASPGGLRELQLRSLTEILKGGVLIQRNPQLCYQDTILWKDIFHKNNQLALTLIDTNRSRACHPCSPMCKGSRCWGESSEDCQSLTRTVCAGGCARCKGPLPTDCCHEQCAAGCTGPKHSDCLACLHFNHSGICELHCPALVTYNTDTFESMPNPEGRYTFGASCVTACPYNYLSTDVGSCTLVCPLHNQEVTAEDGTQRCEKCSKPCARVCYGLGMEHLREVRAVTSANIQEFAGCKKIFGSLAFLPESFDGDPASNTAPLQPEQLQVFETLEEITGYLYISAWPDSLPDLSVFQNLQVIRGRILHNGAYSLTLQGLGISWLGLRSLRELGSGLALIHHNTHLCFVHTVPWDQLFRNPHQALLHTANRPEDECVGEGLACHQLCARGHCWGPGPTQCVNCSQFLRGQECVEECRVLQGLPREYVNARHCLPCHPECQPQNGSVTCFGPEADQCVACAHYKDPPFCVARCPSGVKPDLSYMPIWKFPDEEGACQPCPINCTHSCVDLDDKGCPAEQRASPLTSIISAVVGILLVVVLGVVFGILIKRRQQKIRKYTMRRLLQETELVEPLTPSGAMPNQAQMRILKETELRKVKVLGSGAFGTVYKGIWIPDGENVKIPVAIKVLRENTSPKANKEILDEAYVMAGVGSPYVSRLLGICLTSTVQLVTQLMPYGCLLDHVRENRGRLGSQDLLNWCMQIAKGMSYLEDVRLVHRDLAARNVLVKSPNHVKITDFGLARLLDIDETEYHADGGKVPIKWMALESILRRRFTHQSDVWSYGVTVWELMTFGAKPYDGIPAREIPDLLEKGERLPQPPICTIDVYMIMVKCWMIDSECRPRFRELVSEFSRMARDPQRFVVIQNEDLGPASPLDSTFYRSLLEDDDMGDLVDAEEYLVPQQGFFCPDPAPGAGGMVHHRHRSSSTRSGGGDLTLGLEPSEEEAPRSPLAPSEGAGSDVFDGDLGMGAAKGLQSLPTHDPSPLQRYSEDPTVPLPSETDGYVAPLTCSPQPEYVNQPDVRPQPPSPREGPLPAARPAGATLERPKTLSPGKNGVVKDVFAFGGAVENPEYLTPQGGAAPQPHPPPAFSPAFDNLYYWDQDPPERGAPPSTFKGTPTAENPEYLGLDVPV
T1 sequence (P35968 20-1356): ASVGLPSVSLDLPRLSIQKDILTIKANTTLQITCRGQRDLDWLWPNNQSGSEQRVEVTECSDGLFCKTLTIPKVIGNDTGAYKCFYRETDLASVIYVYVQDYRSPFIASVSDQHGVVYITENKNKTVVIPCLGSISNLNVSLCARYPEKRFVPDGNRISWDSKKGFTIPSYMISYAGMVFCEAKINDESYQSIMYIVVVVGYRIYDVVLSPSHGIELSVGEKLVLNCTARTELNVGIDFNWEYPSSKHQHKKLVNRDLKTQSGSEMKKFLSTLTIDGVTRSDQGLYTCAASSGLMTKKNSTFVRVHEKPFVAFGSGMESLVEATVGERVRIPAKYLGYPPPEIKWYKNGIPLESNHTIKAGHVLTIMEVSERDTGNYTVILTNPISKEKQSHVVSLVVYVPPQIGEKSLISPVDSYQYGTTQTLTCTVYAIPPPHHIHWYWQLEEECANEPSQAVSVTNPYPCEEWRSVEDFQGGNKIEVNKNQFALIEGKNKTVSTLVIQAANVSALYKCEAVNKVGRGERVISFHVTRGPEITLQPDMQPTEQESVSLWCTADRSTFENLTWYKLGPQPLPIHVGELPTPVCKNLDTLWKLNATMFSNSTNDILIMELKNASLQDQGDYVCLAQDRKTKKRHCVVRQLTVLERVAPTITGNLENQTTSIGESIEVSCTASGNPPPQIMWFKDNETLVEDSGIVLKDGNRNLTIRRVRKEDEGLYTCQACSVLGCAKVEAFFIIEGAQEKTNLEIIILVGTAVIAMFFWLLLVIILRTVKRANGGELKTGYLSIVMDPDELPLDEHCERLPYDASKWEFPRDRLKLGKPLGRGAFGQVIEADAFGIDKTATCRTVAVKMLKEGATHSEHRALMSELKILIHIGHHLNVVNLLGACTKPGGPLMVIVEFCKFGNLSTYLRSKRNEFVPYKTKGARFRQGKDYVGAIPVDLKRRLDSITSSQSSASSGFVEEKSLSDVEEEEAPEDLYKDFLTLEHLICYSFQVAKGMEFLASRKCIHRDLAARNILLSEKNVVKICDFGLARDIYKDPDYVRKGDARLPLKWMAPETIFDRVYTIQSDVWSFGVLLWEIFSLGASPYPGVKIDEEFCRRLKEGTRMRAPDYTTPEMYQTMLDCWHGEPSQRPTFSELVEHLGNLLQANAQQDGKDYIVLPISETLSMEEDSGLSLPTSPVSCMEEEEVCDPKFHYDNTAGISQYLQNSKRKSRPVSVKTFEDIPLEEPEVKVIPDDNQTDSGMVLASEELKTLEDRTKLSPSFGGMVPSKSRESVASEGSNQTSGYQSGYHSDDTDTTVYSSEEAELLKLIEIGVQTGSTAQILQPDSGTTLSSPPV

Structure (SMILES)	melting point [°C]	IC50 [3] [µM]	IC50 [6] [µM]	other results
N#Cc1c(-c2ccccc2)c(C#N)c(=O)n(-c2cccc(C(F)(F)F)c2)c1N [Compound 5a]	280 to 282	1.77 ± 0.1	2.71 ± 0.15	VEGFR-2 (pg/mL) expression level [1]: 884.30 pg/mL and 884.30 ± 29.3 pg/mL; HER-2 (pg/mL) expression level [2]: 299.50 pg/mL and 299.50 ± 4.7 pg/mL; IC50 [4]: 0.217 ± 0.02 µM; IC50 [5]: 0.168 ± 0.009 µM
N#Cc1c(-c2ccc(O)cc2)c(C#N)c(=O)n(-c2cccc(C(F)(F)F)c2)c1N [Compound 5b]	330 to 332	24.7 ± 1.33	11.4 ± 0.61	
N#Cc1c(-c2ccc([N+](=O)[O-])cc2)c(C#N)c(=O)n(-c2cccc(C(F)(F)F)c2)c1N [Compound 5c]	229 to 230	20.2 ± 1.09	4.01 ± 0.22	
N#Cc1c(-c2ccc(Cl)cc2)c(C#N)c(=O)n(-c2cccc(C(F)(F)F)c2)c1N [Compound 5d]	324 to 326	13.7 ± 0.74	22.5 ± 1.22	
N#Cc1c(-c2ccc(Cl)cc2Cl)c(C#N)c(=O)n(-c2cccc(C(F)(F)F)c2)c1N [Compound 5e]	239 to 241	1.39 ± 0.08	10.7 ± 0.58	VEGFR-2 (pg/mL) expression level [1]: 510.00 pg/mL and 510.00 ± 20.2 pg/mL; HER-2 (pg/mL) expression level [2]: 148.60 pg/mL and 148.60 ± 5.5 pg/mL; IC50 [4]: 0.124 ± 0.011 µM; IC50 [5]: 0.077 ± 0.003 µM
COc1cc(-c2c(C#N)c(N)n(-c3cccc(C(F)(F)F)c3)c(=O)c2C#N)cc(OC)c1OC [Compound 5f]	195 to 197	54.2 ± 2.93	40.6 ± 2.19	
N#Cc1c(-c2ccc(O)cc2)c2c(=O)[nH]cnc2n(-c2cccc(C(F)(F)F)c2)c1=O [Compound 6a]	300 to 302		7.27 ± 0.39	
N#Cc1c(-c2ccc(Cl)cc2)c2c(=O)[nH]cnc2n(-c2cccc(C(F)(F)F)c2)c1=O [Compound 6b]	350 to 352	14 ± 0.76	2.68 ± 0.14	
CCC(=O)COc1nc(-c2cc(Cl)ccc2Cl)cc(-c2ccc(F)cc2)c1C#N [III]				IC50 cell growth inhibition, SF-268 [7]: 0.02 µg/mL (≈ 0.0466 µM); IC50 cell growth inhibition, NCI-H460 [8]: 0.01 µg/mL (≈ 0.0233 µM); IC50 cell growth inhibition, MCF-7 [9]: 0.02 µg/mL (≈ 0.0466 µM)
CC(=O)O[C@H]1C(=O)[C@@]2(C)[C@H]([C@H](OC(=O)c3ccccc3)[C@]3(O)C[C@H](OC(=O)[C@H](O)[C@@H](NC(=O)c4ccccc4)c4ccccc4)C(C)=C1C3(C)C)[C@]1(OC(C)=O)CO[C@@H]1C[C@@H]2O [Taxol, paclitaxel, reference compound]		8.48 ± 0.46	14.6 ± 0.79	VEGFR-2 (pg/mL) expression level [1]: 660.10 ± 31.4 pg/mL; HER-2 (pg/mL) expression level [2]: 199.10 ± 8.6 pg/mL
COC(=O)NCC#Cc1ccc2ncnc(Nc3ccc(Oc4cccc(C)n4)c(C)c3)c2c1 [V]				anti-HER-2 activity [10]: lower than 42 nM

Further lines, with some results ahead:

melting point [°C]	Structure (SMILES)	IC50 [3] [µM]	IC50 [6] [µM]	other results
308 to 310	Cc1nc2c(c(-c3ccccc3)c(C#N)c(=O)n2-c2cccc(C(F)(F)F)c2)c(=O)[nH]1 [Compound 7a]	10.7 ± 0.58	16.3 ± 0.88	
330 to 332	Cc1nc2c(c(-c3ccc(Cl)cc3)c(C#N)c(=O)n2-c2cccc(C(F)(F)F)c2)c(=O)[nH]1 [Compound 7b]	6.22 ± 0.34	19.6 ± 1.06	
333 to 335	Cc1nc2c(c(-c3ccc(Cl)cc3Cl)c(C#N)c(=O)n2-c2cccc(C(F)(F)F)c2)c(=O)[nH]1 [Compound 7c]	9.28 ± 0.5	5.04 ± 0.27	
320 to 322	CC(=O)Oc1ccc(-c2c(C#N)c(=O)n(-c3cccc(C(F)(F)F)c3)c3nc(C)[nH]c(=O)c23)cc1 [Compound 7d]	43.4 ± 2.35	52.5 ± 2.84	
150 to 152	COc1cc(-c2c(C#N)c(=O)n(-c3cccc(C(F)(F)F)c3)c3nc(C)[nH]c(=O)c23)cc(OC)c1OC [Compound 7e]	27.8 ± 1.5	71.9 ± 3.88	
